The supplement of paper PMC10307832

Key:
Assay in all cases: relative viability (nuclei count vs DMSO), 5 days (fraction); higher = more cells survive
XMD13-2 + Bortezomib = compound: C1CC1C(=O)NC2=NNC3=C2C=CC(=C3)C4=CC(=CC=C4)C(=O)NC5CC5 [XMD13-2] + CC(C)C[C@H](NC(=O)[C@H](Cc1ccccc1)NC(=O)c1cnccn1)B(O)O [Bortezomib] (partner 0.002 µM)
In short: (§1)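 Lung cancer cell lines in 1536-well plates were dosed by pin tool the day after seeding, either with one drug alone or with a fixed anchor-drug dose plus five library-drug doses (not always all listed) in √10 steps. After 5 days, cells were fixed and their nuclei stained in one step (final 0.05% Triton X-100, 1% formaldehyde, 1 ug/ml Hoechst), then counted on 4× images. Relative viability is the nuclei count in treated wells divided by that in vehicle wells. Values are medians of duplicate plates.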

XMD13-2 + Palbociclib = compound: C1CC1C(=O)NC2=NNC3=C2C=CC(=C3)C4=CC(=CC=C4)C(=O)NC5CC5 [XMD13-2] + CC(=O)c1c(C)c2cnc(Nc3ccc(N4CCNCC4)cn3)nc2n(C2CCCC2)c1=O [Palbociclib] (partner 0.5 µM)
In short: as §1

XMD13-2 + Phenformin = compound: C1CC1C(=O)NC2=NNC3=C2C=CC(=C3)C4=CC(=CC=C4)C(=O)NC5CC5 [XMD13-2] + N=C(N)NC(=N)NCCc1ccccc1 [Phenformin] (partner 250 µM)
In short: as §1

XMD13-2 + Crizotinib = compound: C1CC1C(=O)NC2=NNC3=C2C=CC(=C3)C4=CC(=CC=C4)C(=O)NC5CC5 [XMD13-2] + C[C@@H](Oc1cc(-c2cnn(C3CCNCC3)c2)cnc1N)c1c(Cl)ccc(F)c1Cl [Crizotinib] (partner 1 µM)
In short: as §1

Cell Line: UMC-11
- relative viability (XMD13-2 + Bortezomib; first compound 0.05 µM): 0.737
- relative viability (XMD13-2 + Bortezomib; first compound 0.1581 µM): 0.896
- relative viability (XMD13-2 + Bortezomib; first compound 0.5 µM): 0.825
- relative viability (XMD13-2 + Bortezomib; first compound 1.581 µM): 0.587
- relative viability (XMD13-2 + Bortezomib; first compound 5 µM): 0.981
- relative viability (XMD13-2 + Palbociclib; first compound 0.05 µM): 0.356
- relative viability (XMD13-2 + Palbociclib; first compound 0.1581 µM): 0.313
- relative viability (XMD13-2 + Palbociclib; first compound 0.5 µM): 0.349
- relative viability (XMD13-2 + Palbociclib; first compound 1.581 µM): 0.33
- relative viability (XMD13-2 + Palbociclib; first compound 5 µM): 0.334
- relative viability (XMD13-2 + Phenformin; first compound 0.05 µM): 0.362
- relative viability (XMD13-2 + Phenformin; first compound 0.1581 µM): 0.314
- relative viability (XMD13-2 + Phenformin; first compound 0.5 µM): 0.337
- relative viability (XMD13-2 + Phenformin; first compound 1.581 µM): 0.317
- relative viability (XMD13-2 + Phenformin; first compound 5 µM): 0.285
- relative viability (XMD13-2 + Crizotinib; first compound 0.05 µM): 0.58
- relative viability (XMD13-2 + Crizotinib; first compound 0.1581 µM): 0.557
- relative viability (XMD13-2 + Crizotinib; first compound 0.5 µM): 0.647
- relative viability (XMD13-2 + Crizotinib; first compound 1.581 µM): 0.467
- relative viability (XMD13-2 + Crizotinib; first compound 5 µM): 0.329
